Measurements from patent US20260109674A1, “ALLOSTERIC MODULATION OF MUSCARINIC ACETYLCHOLINE RECEPTOR EFFICACY” (The University of Toledo, priority 2022, published 2026).
Marks after values point to notes of the source that are not given here.

Tests used:
[1] = tested on: wild-type zebrafish larvae; test: Maximum tolerated concentration (MTC) determination in zebrafish larvae; type: in vivo, Danio rerio; conditions: after 24-hour exposure; Table 3
Experimental: Determination of maximum tolerated concentration was completed by placing 5 days post fertilization (dpf) wild-type zebrafish larvae in a 24 well plate at 6 fish per well, and one compound concentration per well. […] Death was determined by the absence of heartbeat. Additional endpoints were used to assess toxicity at non-lethal concentrations such as startle capacity (poke stimulus), abnormalities in swimming behavior (loss of dorsoventral balance), and gross morphological deformities (bent body). […] The MTC determination was used to select three doses of each compound (low, medium, high dose) to be used in behavioral assays.

[2] = target: T1, M1 muscarinic receptors expressed in CHO cells (Homo sapiens, UniProt P11229); test: [3H]-arachidonic acid release screen with and without ACh and modulator; type: cell-based; conditions: for Modulation of ACh activity (in words): [3H]AA release; for Modulation of ACh activity (in words) / Intrinsic agonist activity (in words): modulator 10 μM; for Intrinsic agonist activity (in words): without ACh
T1 construct: expressed in transfected cells; host or cells: CHO (CHO-hM1, stably transfected)
T1 sequence (P11229 1-460): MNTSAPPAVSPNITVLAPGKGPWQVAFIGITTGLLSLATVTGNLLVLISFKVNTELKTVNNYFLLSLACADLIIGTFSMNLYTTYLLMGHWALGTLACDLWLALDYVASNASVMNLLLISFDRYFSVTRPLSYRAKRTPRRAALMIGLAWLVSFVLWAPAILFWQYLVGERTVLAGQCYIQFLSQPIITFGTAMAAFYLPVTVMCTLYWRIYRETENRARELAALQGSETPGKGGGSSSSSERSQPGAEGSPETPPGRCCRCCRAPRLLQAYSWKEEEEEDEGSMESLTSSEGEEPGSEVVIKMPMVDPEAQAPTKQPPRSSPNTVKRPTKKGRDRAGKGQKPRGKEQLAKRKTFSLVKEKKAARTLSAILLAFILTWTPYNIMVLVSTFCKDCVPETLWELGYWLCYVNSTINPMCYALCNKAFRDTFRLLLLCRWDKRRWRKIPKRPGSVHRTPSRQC
Experimental: CHO cells expressing human M1 muscarinic receptors were cultured at 37° C. in a 5% CO2 atmosphere in F12 medium supplemented with 5% fetal bovine serum, 100 units/mL penicillin, and 100 μg/mL streptomycin.
Measurement of [^3H]AA release was performed. Stably transfected CHO-hM1 or CHO-hM3 cells were seeded on 24-well plates (Greiner Bio-One GmbH, Frickenhausen, Germany) at a density of 5.0×10^4 cells/well in 0.5 ml of F-12 medium. Cells were incubated until they attached (approximately 3 h), followed by the addition of [^3H]AA to a final concentration of 0.05 μCi of [^3H]AA per well. The cells were then grown for 16 to 20 h before the assay was performed. [^3H]AA release was measured in Eagle's basal medium with 20 mM HEPES and 2 mg/ml fatty acid-free bovine serum albumin (EM-BSA). Cells were rinsed twice with EM-BSA, followed by the addition of EM-BSA media containing experimental agents and incubated for 1 h at 37° C. The assay was terminated by aspiration of the media, and the amount of [^3H]AA released was determined by liquid scintillation counting (Beckman-Coulter LS6500).
For some assays, pretreatment with phenoxybenzamine (POB) was employed, as indicated, to reduce the number of available receptors per cell. Stock POB was made up at 10 mM in ethanol and stored at −20° C. Each well was pretreated with 0.5 ml of the appropriate concentration in PBS with 1 mM CaCl2 and 1 mM MgCl2 (PBS++) for 30 min at 37° C., followed by 5 washes with PBS++. After pretreatment, the normal protocol was followed as above.
Tabulated [^3H]AA release data are represented as a fraction of maximal release in the presence of 100 μM ACh or as the fraction of release elicited by the appropriate concentration of ACh alone, as indicated dose-response curves were normalized to the maximal response of ACh without allosteric ligand. Some response curves were analyzed using the empirical four-parameter equation: […]
Disintegration per minute (DPM) values for a single compound were obtained in triplicate, and each compound was evaluated on three separate 24-well plates. The mean values for each condition from each of the three 24-well plates were used for the statistical analysis. The baseline mean was subtracted from each value, then normalized to the mean response produced by 100 μM ACh (set at 1.0). Statistical analyses were completed on the normalized values via one-way repeated measures ANOVA with Tukey's post hoc test. Statistically significant differences are noted as follows: *, p<0.05; **, p<0.01; ***, p<0.001.

[3] = tested on: wild-type zebrafish larvae; test: General locomotor assay in zebrafish larvae (locomotor activity, repetitive behaviors); type: in vivo, Danio rerio; conditions: Table 3; test concentration not given; N = 12
Experimental: Five days post fertilization (dpf) zebrafish larvae were exposed to a range of nonlethal concentrations of the compounds in a 24-well plate with appropriate controls. The movement of each larval zebrafish was monitored with the Noldus behavior recording system (Noldus Information Technology, Leesburg VA) and quantified using EthoVision® XT 15 software (Noldus Information Technology, Leesburg VA). The plate was immediately placed in the incubator for a 30-minute exposure period. After 30 minutes, the plate was transferred to the Noldus system and swimming behavior was recorded in 100% light for 30 minutes to measure spontaneous swimming behavior. The light was switched off for 10 minutes (dark period) and then switched on for 10 minutes (light period), which was then repeated for two additional cycles. In total, the larvae were exposed to three cycles of alternating 10-minute dark and light periods (100% darkness-to-100% light). […]
All data for exposure and the behavioral end points were analyzed by one-way ANOVA (factor: drug conc) followed by a Dunnett's multiple comparisons test for post hoc significance between drug concentration and control group. Statistically significant differences are noted as follows: *, p<0.05; **, p<0.01; ***, p<0.001.

[4] = 10 μM modulator, Table 4, N = 4-5

Structure (SMILES) | Maximum Tolerated Concentration [1] [µM] | Ratio of response of ACh with modulator to response of ACh alone, 0.1 μM ACh ([2]; 10 μM modulator, Table 1) | Ratio of response of ACh with modulator to response of ACh alone, 100 μM ACh ([2]; 10 μM modulator, Table 1) | Stimulation of [3H]AA release, No ACh (fraction of stimulation above the control) ([2]; 10 μM modulator, Table 1) | also measured
CCCCc1oc2ccccc2c1C(=O)c1cc(I)c(OCCN(CC)CC)c(I)c1 [Amiodarone, reference compound] | 10 |  |  |  | 
COc1ccc(Cn2cc(C(=O)O)c(=O)c3ccccc32)cc1 [BQCA, reference compound] |  | 2.34 ± 0.23 | 0.86 ± 0.03 | 0.37 ± 0.04 | Ratio of response of ACh with modulator to response of ACh alone, 0.1 μM ACh ([2]; 3 μM modulator, Table 1): 2.43 ± 0.19; Ratio of response of ACh with modulator to response of ACh alone, 100 μM ACh ([2]; 3 μM modulator, Table 1): 0.99 ± 0.02; Stimulation of [3H]AA release, No ACh (fraction of stimulation above the control) ([2]; 3 μM modulator, Table 1): 0.06 ± 0.06; Angular Velocity [3]: 141.8 ± 14.9* % of control; Total Distance Moved [3]: 72.0 ± 10.0* % of control; Variance of Turn Angle [3]: 119.6 ± 7.0* % of control
CCCCc1oc2ccccc2c1C(=O)c1cc(I)c(OCCNCC)c(I)c1.Cl [Compound 1, (2-butylbenzofuran-3-yl)(4-(2-(ethylamino)ethoxy)-3,5-diiodophenyl)methanone hydrochloride] | 3 | 0.75 ± 0.08 | 0.67 ± 0.02 | 0.22 ± 0.01 | Modulation of ACh activity (in words) [2]: weaker efficacy PAM relative to amiodarone
CCCCc1oc2ccccc2c1C(=O)c1cc(I)c(OCCN(CC)C(C)=O)c(I)c1 [Compound 5a, N-(2-(4-(2-butylbenzofuran-3-carbonyl)-2,6-diiodophenoxy)ethyl)-N-ethylacetamide] | 10 | 2.22 ± 0.26 | 1.58 ± 0.03 | 0.17 ± 0.04 | Increase of mAChR activity compared to treatment with ACh alone ([2]; 10 μM modulator): 70%; Intrinsic agonist activity (in words) [2]: significant intrinsic agonist activity
CCCCc1oc2ccccc2c1C(=O)c1cc(I)c(OCCN(CC)C(=O)c2ccccc2)c(I)c1 [Compound 5b, N-(2-(4-(2-butylbenzofuran-3-carbonyl)-2,6-diiodophenoxy)ethyl)-N-ethylbenzamide] | 10 | 1.34 ± 0.05 | 1.26 ± 0.05 | 0.02 ± 0.01 | Increase of mAChR activity compared to treatment with ACh alone ([2]; 10 μM modulator): 80%; Intrinsic agonist activity (in words) [2]: lacked intrinsic activity
CCCCc1oc2ccccc2c1C(=O)c1ccc(OC)cc1 [Compound 6a, (2-butylbenzofuran-3-yl)(4-methoxyphenyl)methanone] | 3 | 1.18 ± 0.06 | 1.03 ± 0.03 | 0.05 ± 0.01 | 
CCCCc1oc2ccccc2c1C(=O)c1cc(I)c(OC)c(I)c1 [Compound 6b, (2-butylbenzofuran-3-yl)(3,5-diiodo-4-methoxyphenyl)methanone] | 30 | 1.6 ± 0.07 | 1.32 ± 0.08 | 0.06 ± 0.01 | Modulation of ACh activity (in words) [2]: increased ACh activity
CCCCc1oc2ccccc2c1C(=O)c1ccc(OCCN(CC)CC)cc1 [Compound 6c, (2-butylbenzofuran-3-yl)(4-(2-(diethylamino)ethoxy)phenyl)methanone] | 3 | 0.46 ± 0.17 | 1.05 ± 0.05 | 0.05 ± 0.04 | Modulation of ACh activity (in words) [2]: decreased ACh activity
COc1ccc(CN2C(=O)C(=O)c3ccccc32)cc1I [Compound 8b, 1-(3-iodo-4-methoxybenzyl)indoline-2,3-dione] | 10 | 1.81 ± 0.04 | 1.24 ± 0.01 | 0.08 ± 0.01 | 
COc1ccc(CN2C(=O)C(=O)c3ccccc32)cc1Br [Compound 8d, 1-(3-bromo-4-methoxybenzyl)indoline-2,3-dione] | 100 | 1.31 ± 0.06 | 0.87 ± 0.01 | 0.04 ± 0.01 | 
COc1c(Cl)cc(CN2C(=O)C(=O)c3ccccc32)cc1Cl [Compound 8e, 1-(3,5-dichloro-4-methoxybenzyl)indoline-2,3-dione] | 100 | 2.13 ± 0.11 | 1.28 ± 0.07 | 0.08 ± 0.01 | 
COc1ccc(CN2C(=O)C(=O)c3ccccc32)cc1Cl [Compound 8f, 1-(3-chloro-4-methoxybenzyl)indoline-2,3-dione] | 10 | 1.49 ± 0.03 | 1.13 ± 0.04 | 0.08 ± 0.02 | 
COc1c(I)cc(Cn2cc(C(=O)O)c(=O)c3ccccc32)cc1I [GK-1-47] |  |  |  |  | Ratio of response of ACh with modulator to response of ACh alone, 0.1 μM ACh [2, 4]: 2.46 ± 0.13; Ratio of response of ACh with modulator to response of ACh alone, 100 μM ACh [2, 4]: 1.33 ± 0.04; Stimulation of [3H]AA release, No ACh (fraction of stimulation above the control) [2, 4]: 0.24 ± 0.01
O=C1C(=O)N(Cc2ccc(Br)cc2)c2ccccc21 [VU0119498, reference compound] |  | 1.22 ± 0.34 | 1.04 ± 0.07 | 0.07 ± 0.00 | 
